Experimental data: patent US20260207563A1, “UREA COMPOUNDS AS ACTIVATORS OF POTASSIUM CHANNELS KV7.2/7.3 USEFUL IN THE TREATMENT OF CNS AND PNS DISORDERS” (ANGELINI PHARMA S.P.A., priority 2022, published 2026)

Experiments:
Format in all cases: cell-based
[1] = molecular target: T1, heteromeric KV7.2/KV7.3 channels (KCNQ2, KCNQ3) (Homo sapiens, UniProt O43525+O43526); assay: Automated patch-clamp (Sophion Qube 384) potency assay against KV7.2/KV7.3 channels; conditions: CHO-K1/Kv7.2/Kv7.3 cells; for EC50: EC50 from concentration-response of shift in Vhalf, 10 concentrations up to 30 μM, read-out: Kv7.2/7.3 EC50; for Kv7.2/7.3 ΔV1/2: maximal shift in the Vhalf from the top of the curve
T1 construct: expressed in transfected cells; host or cells: CHO-K1
Procedure, shortened: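 Whole-cell automated patch clamp on CHO-K1 cells stably expressing human KV7.2/KV7.3, held at −80 mV; I-V steps −100 to +20 mV (1 s) with 0 mV tail pulses, Boltzmann-fitted activation curves. Ten concentrations (1:3 from 30 μM, quadruplicate) versus 0.3% DMSO control; EC50 and maximal shift from 4-parameter fits of Vhalf shift.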

[2] = molecular target: T2, heteromeric KV7.3/KV7.5 channel (KCNQ3, KCNQ5) (Homo sapiens, UniProt O43525+Q9NR82); assay: Automated patch-clamp counter-screening against KV7.3/KV7.5 channel; conditions: HEK293 cells expressing Kv7.3/KV7.5; class by maximal shift in the Vhalf at 30 μM
T2 construct: host or cells: HEK293
Procedure, shortened: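 HEK293 cells with constitutive Kv7.3 and tetracycline-inducible Kv7.5 were recorded by automated patch clamp. Ten concentrations (1:3 series from 30 μM, quadruplicate) were tested; Vhalf shifts were fitted with a 4-parameter logistic to give EC50 and maximal Vhalf shift, with selectivity based on the shift at 30 μM.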

[3] = molecular target: T3, homomeric KV7.4 channel (KCNQ4) (Homo sapiens, UniProt P56696); assay: Automated patch-clamp (Qube) counter-screening assay against KV7.4 channel; conditions: CHO-K1 cells expressing KV7.4; class by maximal shift in the Vhalf at 30 μM
T3 construct: host or cells: CHO-K1
Procedure, shortened: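 CHO-K1 cells stably expressing homomeric human KV7.4 were recorded on the Qube automated patch clamp. Ten concentrations (1:3 dilutions from 30 μM) were tested in quadruplicate. The mean Vhalf shift was fitted with a 4-parameter logistic to give EC50 and maximal Vhalf shift, and selectivity was based on the shift at 30 μM.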

For O=C(NCCC1(C(F)(F)F)CC1)NCc1ccnc(C(F)F)c1 [Compound 109], the EC50 [1] was 4790 nM, the “Kv7.2/7.3 ΔV1/2” value [1] was 16.81 mV and the Kv7.3/7.5 selectivity criteria [2] was “A (Selective compounds showed Kv7.4 and/or Kv7.3/7.5 ΔV1/2 equal to or lower than 15 mV (letter A in table 3))”. For the same compound, the Kv7.4 selectivity criteria [3] was “A (Selective compounds showed Kv7.4 and/or Kv7.3/7.5 ΔV1/2 equal to or lower than 15 mV (letter A in table 3))”.

C[C@H](NC(=O)N[C@@H]1CCc2ccc(F)cc21)c1ccnc(OCC(F)(F)F)n1 [Compound 110] was tested, and the EC50 [1] was 1920 nM, the “Kv7.2/7.3 ΔV1/2” value [1] was 28.73 mV and the Kv7.3/7.5 selectivity criteria [2] was “B (Non-selective compounds showed Kv7.4 and/or Kv7.3/7.5 ΔV1/2 higher than 15 mV (letter B in table 3))”. For the same compound, the Kv7.4 selectivity criteria [3] was “A (Selective compounds showed Kv7.4 and/or Kv7.3/7.5 ΔV1/2 equal to or lower than 15 mV (letter A in table 3))”.

O=C(NCc1ccnc(OCC(F)F)c1)N[C@@H]1CCc2ccc(F)cc21 [Compound 111] was tested, and the EC50 [1] was 2440 nM, the “Kv7.2/7.3 ΔV1/2” value [1] was 35.96 mV and the Kv7.3/7.5 selectivity criteria [2] was “B (Non-selective compounds showed Kv7.4 and/or Kv7.3/7.5 ΔV1/2 higher than 15 mV (letter B in table 3))”. For the same compound, the Kv7.4 selectivity criteria [3] was “A (Selective compounds showed Kv7.4 and/or Kv7.3/7.5 ΔV1/2 equal to or lower than 15 mV (letter A in table 3))”.

With O=C(NCCC1(C(F)(F)F)CC1)N[C@@H](CO)c1ccnc(OCC(F)(F)F)c1 [Compound 112] the EC50 [1] was 653 nM, the “Kv7.2/7.3 ΔV1/2” value [1] was 26.53 mV and the Kv7.3/7.5 selectivity criteria [2] was “A (Selective compounds showed Kv7.4 and/or Kv7.3/7.5 ΔV1/2 equal to or lower than 15 mV (letter A in table 3))”. The Kv7.4 selectivity criteria [3] was “A (Selective compounds showed Kv7.4 and/or Kv7.3/7.5 ΔV1/2 equal to or lower than 15 mV (letter A in table 3))”.

O=C(NCc1ccnc(C(O)C(F)(F)F)c1)N[C@@H]1CCc2ccc(F)cc21 (stereo partly shown) [Compound 113] was tested, and the EC50 [1] was 7640 nM, the “Kv7.2/7.3 ΔV1/2” value [1] was 27.22 mV and the Kv7.3/7.5 selectivity criteria [2] was “B (Non-selective compounds showed Kv7.4 and/or Kv7.3/7.5 ΔV1/2 higher than 15 mV (letter B in table 3))”. The Kv7.4 selectivity criteria [3] was “A (Selective compounds showed Kv7.4 and/or Kv7.3/7.5 ΔV1/2 equal to or lower than 15 mV (letter A in table 3))”.

With CC1(NC(=O)NCc2ccnc(OCC(F)(F)F)c2)Cc2ccccc2C1 [Compound 114] the EC50 [1] was 672 nM, the “Kv7.2/7.3 ΔV1/2” value [1] was 32.56 mV and the Kv7.3/7.5 selectivity criteria [2] was “B (Non-selective compounds showed Kv7.4 and/or Kv7.3/7.5 ΔV1/2 higher than 15 mV (letter B in table 3))”. For the same compound, the Kv7.4 selectivity criteria [3] was “A (Selective compounds showed Kv7.4 and/or Kv7.3/7.5 ΔV1/2 equal to or lower than 15 mV (letter A in table 3))”.

In the case of O=C(NCc1ccnc(OCC(F)(F)F)c1)N[C@@H]1CCc2ccccc2C1 [Compound 115], the EC50 [1] is reported as 479 nM, the “Kv7.2/7.3 ΔV1/2” value [1] is reported as 21.89 mV and the Kv7.3/7.5 selectivity criteria [2] is reported as “A (Selective compounds showed Kv7.4 and/or Kv7.3/7.5 ΔV1/2 equal to or lower than 15 mV (letter A in table 3))”. For the same compound, the Kv7.4 selectivity criteria [3] was “A (Selective compounds showed Kv7.4 and/or Kv7.3/7.5 ΔV1/2 equal to or lower than 15 mV (letter A in table 3))”.

In the case of Cc1cccc2c1C(NC(=O)NCc1ccnc(OCC(F)(F)F)c1)CC2 (stereo not shown) [Compound 116], the EC50 [1] is reported as 1590 nM, the “Kv7.2/7.3 ΔV1/2” value [1] is reported as 31.15 mV and the Kv7.3/7.5 selectivity criteria [2] is reported as “B (Non-selective compounds showed Kv7.4 and/or Kv7.3/7.5 ΔV1/2 higher than 15 mV (letter B in table 3))”. The Kv7.4 selectivity criteria [3] was “A (Selective compounds showed Kv7.4 and/or Kv7.3/7.5 ΔV1/2 equal to or lower than 15 mV (letter A in table 3))”.

O=C(NCc1ccnc(OCC(F)(F)F)c1)NC1CCc2ccc(C(F)(F)F)cc21 (stereo not shown) [Compound 117] was tested, and the EC50 [1] was 1900 nM, the “Kv7.2/7.3 ΔV1/2” value [1] was 20.5 mV and the Kv7.3/7.5 selectivity criteria [2] was “A (Selective compounds showed Kv7.4 and/or Kv7.3/7.5 ΔV1/2 equal to or lower than 15 mV (letter A in table 3))”. The Kv7.4 selectivity criteria [3] was “A (Selective compounds showed Kv7.4 and/or Kv7.3/7.5 ΔV1/2 equal to or lower than 15 mV (letter A in table 3))”.

O=C(NCc1ccnc(OCC(F)(F)F)c1)N[C@@H]1CCc2c(Cl)cccc21 [Compound 118] was tested, and the EC50 [1] was 1550 nM, the “Kv7.2/7.3 ΔV1/2” value [1] was 41.97 mV and the Kv7.3/7.5 selectivity criteria [2] was “B (Non-selective compounds showed Kv7.4 and/or Kv7.3/7.5 ΔV1/2 higher than 15 mV (letter B in table 3))”. For the same compound, the Kv7.4 selectivity criteria [3] was “B (Non-selective compounds showed Kv7.4 and/or Kv7.3/7.5 ΔV1/2 higher than 15 mV (letter B in table 3))”.
